Columns and labels:
Assay type in all cases: biochemical
Human Factor XIIa = Human Factor XIIa (Homo sapiens (Human), UniProt P00748); experiment: Determination of FXIIa inhibition (fluorogenic substrate H-DPro-Phe-Arg-AFC, IC50 assay); conditions: substrate H-DPro-Phe-Arg-AFC at Km, 25° C.; class scale A-G
Outline: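 Human FXIIa incubated at 25° C with fluorogenic substrate H-DPro-Phe-Arg-AFC at its Km concentration and varying compound concentrations. Fluorescence release monitored over 5 min at 25° C; linear rate expressed as % of uninhibited activity to derive IC50.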

Thrombin = Thrombin (Homo sapiens (Human), UniProt P00734); experiment: Determination of related protease inhibition: Thrombin (fluorogenic substrate at Km); conditions: 25° C.
Procedure: (§1) Determination of Related Protease Inhibition
(§2) In vitro inhibition of related proteases was determined using an ([…] assay based on standard literature methods (see e.g. Shori et al., Biochem. Pharmacol., 1992, 43, 1209; Bouckaert et al., European Journal of Medicinal Chemistry 110 (2016) 181). Human serine protease enzymes Plasma Kallikrein, KLK1, FXa, Plasmin, Thrombin and Trypsin were assayed for enzymatic activity using an appropriate fluorogenic substrate at Km concentration, FXIa at fixed substrate concentration of 100 μM, and various concentrations of the test compound. Protease activity was measured by monitoring the accumulation of liberated fluorescence from the substrate over […]. The linear rate of fluorescence increase per minute was expressed as percentage (%) activity. IC50 values were calculated as the concentration of inhibitor giving 50% inhibition of the uninhibited enzyme activity (100%).

FXa = FXa (Homo sapiens (Human), UniProt P00742); experiment: Determination of related protease inhibition: FXa (fluorogenic substrate at Km); conditions: 25° C.
FXa, sequence (P00742 235-488): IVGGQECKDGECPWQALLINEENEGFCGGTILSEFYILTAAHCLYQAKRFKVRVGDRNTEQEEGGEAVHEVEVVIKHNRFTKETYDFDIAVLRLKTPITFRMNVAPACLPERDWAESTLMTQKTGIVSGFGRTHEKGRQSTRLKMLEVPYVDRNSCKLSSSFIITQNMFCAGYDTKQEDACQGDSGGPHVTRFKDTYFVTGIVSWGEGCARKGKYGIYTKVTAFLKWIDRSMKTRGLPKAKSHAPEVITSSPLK
FXa, sequence (P00742 41-179 partner): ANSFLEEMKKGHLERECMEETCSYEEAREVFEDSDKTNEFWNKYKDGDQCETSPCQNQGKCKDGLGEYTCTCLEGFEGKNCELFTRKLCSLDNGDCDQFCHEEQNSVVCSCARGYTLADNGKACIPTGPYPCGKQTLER
Procedure: as §1, §2

KLK1 = KLK1 (Homo sapiens (Human), UniProt P06870); experiment: Determination of related protease inhibition: KLK1 (fluorogenic substrate at Km); conditions: 25° C.
KLK1, sequence (P06870 25-262): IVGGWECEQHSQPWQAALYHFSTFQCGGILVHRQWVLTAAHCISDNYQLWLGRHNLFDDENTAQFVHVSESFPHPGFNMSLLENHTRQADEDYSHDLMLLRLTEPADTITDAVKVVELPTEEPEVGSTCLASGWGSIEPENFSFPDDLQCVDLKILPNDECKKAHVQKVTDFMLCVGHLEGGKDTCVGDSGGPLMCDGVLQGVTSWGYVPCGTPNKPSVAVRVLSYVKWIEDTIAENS
Outline: (§3)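 Human protease + fluorogenic substrate (at Km) + test cpd, varied concns; fluorescence kinetic read 5 min, 25 °C. Linear slope → % activity vs uninhibited control; IC50 at 50% inhibition.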

Plasma Kallikrein = Plasma Kallikrein (Homo sapiens (Human), UniProt P03952); experiment: Determination of related protease inhibition: Plasma Kallikrein (fluorogenic substrate at Km); conditions: 25° C., read-out: IC50 (human PKal)
Plasma Kallikrein, sequence (P03952 391-638): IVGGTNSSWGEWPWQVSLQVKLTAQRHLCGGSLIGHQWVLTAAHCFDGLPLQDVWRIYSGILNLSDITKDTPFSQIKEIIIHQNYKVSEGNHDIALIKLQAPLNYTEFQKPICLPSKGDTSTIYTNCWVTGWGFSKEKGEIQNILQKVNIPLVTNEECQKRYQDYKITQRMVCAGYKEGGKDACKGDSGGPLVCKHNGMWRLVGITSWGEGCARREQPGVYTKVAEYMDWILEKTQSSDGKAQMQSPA
Plasma Kallikrein, sequence (P03952 20-390 partner): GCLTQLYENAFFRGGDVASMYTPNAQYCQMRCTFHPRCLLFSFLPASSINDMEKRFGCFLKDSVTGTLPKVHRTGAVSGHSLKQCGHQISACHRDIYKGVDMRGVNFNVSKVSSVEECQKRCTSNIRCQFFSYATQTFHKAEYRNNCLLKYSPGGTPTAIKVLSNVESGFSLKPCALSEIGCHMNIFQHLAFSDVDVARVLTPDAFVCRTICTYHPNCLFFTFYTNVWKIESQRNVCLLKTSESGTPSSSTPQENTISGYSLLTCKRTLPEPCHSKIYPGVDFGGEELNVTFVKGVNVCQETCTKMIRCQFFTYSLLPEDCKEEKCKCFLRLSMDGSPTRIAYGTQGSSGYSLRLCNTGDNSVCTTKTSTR
Outline: as §3

Human Factor XIIa, sequence (P00748 373-615): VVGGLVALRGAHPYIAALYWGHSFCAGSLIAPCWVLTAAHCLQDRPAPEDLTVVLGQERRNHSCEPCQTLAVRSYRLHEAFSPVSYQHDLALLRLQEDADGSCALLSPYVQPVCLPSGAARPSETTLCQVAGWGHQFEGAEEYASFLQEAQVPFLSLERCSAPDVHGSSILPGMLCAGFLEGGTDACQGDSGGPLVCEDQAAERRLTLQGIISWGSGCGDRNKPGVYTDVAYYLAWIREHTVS

Row | IC50 (Human Factor XIIa) [µM] | IC50 (Thrombin) [µM] | IC50 (FXa) [µM] | IC50 (KLK1) [µM] | IC50 (Plasma Kallikrein) [µM] | Structure (SMILES)
1 | 10 to 40 | > 40 | > 40 | 10 to 40 | > 40 | Nc1ncc(Cl)c2cc(NCc3ccc(CCN4CCOCC4)cc3F)ccc12 [Example 2215, 4-chloro-6-N-({2-fluoro-4-[2-(morpholin-4-yl)ethyl]phenyl}methyl)isoquinoline-1,6-diamine]
2 | 0.3 to 1 | > 40 | > 40 | 10 to 40 | > 40 | CN1CCN(CCc2ccc(CNc3cccc4c(N)nccc34)c(F)c2)CC1 [Example 2182, 5-N-({2-fluoro-4-[2-(4-methylpiperazin-1-yl)ethyl]phenyl}methyl)isoquinoline-1,5-diamine]
3 | 1 to 3 | 0.3 to 1 | 0.3 to 1 | 1 to 3 | 10 to 40 | CC(=O)N1CC2CC1CC2COc1cc(CNc2ccc3c(N)nccc3c2)ccn1 (stereo not drawn) [Example 4275, 1-(5-(((4-(((1-aminoisoquinolin-6-yl)amino)methyl)pyridin-2-yl)oxy)methyl)-2-azabicyclo[2.2.1]heptan-2-yl)ethan-1-one]
4 | 0.1 to 0.3 | 0.3 to 1 | 0.01 to 0.1 | 0.3 to 1 | 3 to 10 | CN1CC2C(COc3cc(CNc4ccc5c(N)nccc5c4)ccn3)C2C1 (stereo not drawn) [Example 4269, N6-((2-((3-methyl-3-azabicyclo[3.1.0]hexan-6-yl)methoxy)pyridin-4-yl)methyl)isoquinoline-1,6-diamine]
5 | 3 to 10 | > 40 | 3 to 10 | 10 to 40 | > 40 | CN1CCC(COc2cc(CNc3nccc4c(N)ccnc34)ccn2)CC1 [Example 4273, N8-((2-((1-methylpiperidin-4-yl)methoxy)pyridin-4-yl)methyl)-1,7-naphthyridine-4,8-diamine]
6 | 1 to 3 | > 4 | > 100 | 3 to 10 | > 20 | Cc1cc(NCc2ccnc(OCC3CCN(C)CC3)c2)cc2ccncc12 [Example 4464, 8-methyl-N-((2-((1-methylpiperidin-4-yl)methoxy)pyridin-4-yl)methyl)isoquinolin-6-amine]
7 | 10 to 40 | > 40 | > 40 | 10 to 40 | > 40 | CN1C[C@H](COc2cc(CNc3cccc4c(N)nccc34)ccn2)OC1=O [Example 4280, (5R)-5-{[(4-{[(1-aminoisoquinolin-5-yl)amino]methyl}pyridin-2-yl)oxy]methyl}-3-methyl-1,3-oxazolidin-2-one]
8 | 0.3 to 1 | > 40 | > 40 | 3 to 10 | > 40 | Nc1nccc2c(NCc3ccc(N4CCn5c(nnc5C(F)(F)F)C4)nc3)cccc12 [Example 1275, N5-((6-(3-(trifluoromethyl)-5,6-dihydro-[1,2,4]triazolo[4,3-a]pyrazin-7(8H)-yl)pyridin-3-yl)methyl)isoquinoline-1,5-diamine]
9 | 3 to 10 | > 40 | > 40 | 10 to 40 | 10 to 40 | CN1CC2(CC(OCc3ccc(CNc4cccc5c(N)nccc45)c(F)c3)C2)C1 [Example 2206, 5-N-[[2-fluoro-4-[(2-methyl-2-azaspiro[3.3]heptan-6-yl)oxymethyl]phenyl]methyl]isoquinoline-1,5-diamine]
10 | 0.1 to 0.3 | > 40 | 10 to 40 | 3 to 10 | 3 to 10 | Cc1cn2c(n1)CC(COc1cc(CNc3cccc4c(N)nccc34)ccn1)CC2 (stereo not drawn) [Example 4319, N5-[[2-[(2-methyl-5,6,7,8-tetrahydroimidazo[1,2-a]pyridin-7-yl)methoxy]-4-pyridyl]methyl]isoquinoline-1,5-diamine]
11 | 0.3 to 1 | > 40 | > 40 | 3 to 10 | > 40 | CN1CCC(COc2cc(CNc3cccc4c(N)nccc34)cc(C(F)(F)F)n2)CC1 [Example 4281, 5-N-[[2-[(1-methyl-4-piperidyl)methoxy]-6-(trifluoromethyl)-4-pyridyl]methyl]isoquinoline-1,5-diamine]
12 | 0.1 to 0.3 | 10 to 40 | 10 to 40 | 3 to 10 | > 40 | Nc1nccc2c(NCc3ccnc(OCC4CCn5c(nnc5C(F)F)C4)c3)cccc12 (stereo not drawn) [Example 4467, N5-((2-((3-(difluoromethyl)-5,6,7,8-tetrahydro-[1,2,4]triazolo[4,3-a]pyridin-7-yl)methoxy)pyridin-4-yl)methyl)isoquinoline-1,5-diamine]
13 | 1 to 3 | 1 to 3 | 3 to 10 | 0.3 to 1 | 3 to 10 | Cn1ccnc1CCOc1cc(CNc2ccc3c(N)nccc3c2)ccn1 [Example 4283, 6-N-({2-[2-(1-methylimidazol-2-yl)ethoxy]pyridin-4-yl}methyl)isoquinoline-1,6-diamine]
14 | 0.3 to 1 | > 40 | 3 to 10 | 3 to 10 | > 40 | CN1CC2CC1CC2COc1cc(CNc2cccc3c(N)nccc23)ccn1 (stereo not drawn) [Example 4276, 5-N-{[2-({2-methyl-2-azabicyclo[2.2.1]heptan-5-yl}methoxy)pyridin-4-yl]methyl}isoquinoline-1,5-diamine]
15 | 3 to 10 | > 40 | > 40 | > 40 | > 40 | CN1CCC(CNc2ccc(CNc3ccc4cnccc4c3Cl)cn2)CC1 [Example 1209, 5-chloro-N-((6-(((1-methylpiperidin-4-yl)methyl)amino)pyridin-3-yl)methyl)isoquinolin-6-amine]
16 | 1 to 3 | > 40 | > 40 | 10 to 40 | > 40 | CN1CC(OCc2ccc(CNc3cccc4c(N)nccc34)c(F)c2)CCC1=O (stereo not drawn) [Example 2209, 5-[[4-[[(1-amino-5-isoquinolyl)amino]methyl]-3-fluoro-phenyl]methoxy]-1-methyl-piperidin-2-one]
17 | 0.3 to 1 | 3 to 10 | 10 to 40 | 0.3 to 1 | 10 to 40 | CN1CCN(CCc2ccc(CNc3ccc4c(N)nccc4c3)c(F)c2)CC1 [Example 2181, 6-N-({2-fluoro-4-[2-(4-methylpiperazin-1-yl)ethyl]phenyl}methyl)isoquinoline-1,6-diamine]
18 | 0.1 to 0.3 | > 40 | > 40 | 1 to 3 | 10 to 40 | CC(C)N1CCC(CN(CCCO)C(=O)c2cccc(CNc3cccc4c(N)nccc34)c2)CC1 [Example 4441, 3-{[(1-aminoisoquinolin-5-yl)amino]methyl}-N-(3-hydroxypropyl)-N-[(1-isopropylpiperidin-4-yl)methyl]benzamide]
19 | 3 to 10 | 10 to 40 | 10 to 40 | 10 to 40 | > 40 | CN1CCC(CNc2ccc(CNc3ccnc(N)c3)cn2)CC1 [Example 1096, N4-((6-(((1-methylpiperidin-4-yl)methyl)amino)pyridin-3-yl)methyl)pyridine-2,4-diamine]
20 | 0.1 to 0.3 | 1 to 3 | 0.3 to 1 | 1 to 3 | 3 to 10 | CN1CC2CC1CC2COc1cc(CNc2ccc3c(N)nccc3c2)ccn1 (stereo not drawn) [Example 4277, N6-((2-((2-methyl-2-azabicyclo[2.2.1]heptan-5-yl)methoxy)pyridin-4-yl)methyl)isoquinoline-1,6-diamine]
21 | 10 to 40 | > 40 | > 40 | 10 to 40 | > 40 | Nc1nccc2c(NCc3ccc(CN4CCOCC4)cc3F)cccc12 [Example 1034, 5-N-{[2-fluoro-4-(morpholin-4-ylmethyl)phenyl]methyl}isoquinoline-1,5-diamine]
22 | 10 to 40 | > 40 | > 40 | 10 to 40 | > 40 | Cn1ccnc1CC(=O)NCc1ccc(CNc2cccc3c(N)nccc23)c(F)c1 [Example 2211, N-(4-(((1-aminoisoquinolin-5-yl)amino)methyl)-3-fluorobenzyl)-2-(1-methyl-1H-imidazol-2-yl)acetamide]
23 | 0.3 to 1 | > 40 | > 40 | 10 to 40 | > 40 | Nc1nccc2c(NCc3ccc(CCN4CCOCC4)cc3F)cccc12 [Example 2183, N5-[[2-fluoro-4-(2-morpholinoethyl)phenyl]methyl]isoquinoline-1,5-diamine]

Row | Structure (SMILES) | IC50 (Human Factor XIIa) [µM] | IC50 (Thrombin) [µM] | IC50 (FXa) [µM] | IC50 (KLK1) [µM] | IC50 (Plasma Kallikrein) [µM]
24 | CN1[C@@H]2COC[C@H]1CC(OCc1ccc(CNc3cccc4c(N)nccc34)c(F)c1)C2 (stereo partly drawn) [Example 2254, N5-(2-fluoro-4-((((1R,5S)-9-methyl-3-oxa-9-azabicyclo[3.3.1]nonan-7-yl)oxy)methyl)benzyl)isoquinoline-1,5-diamine] | 0.1 to 0.3 | > 40 | 10 to 40 | 10 to 40 | > 40

From patent publication US20240059691A1 (KALVISTA PHARMACEUTICALS LIMITED, priority 2020, published 2024)
